Data set [1] in a line: Differential scanning calorimetry of travoprost:excipient blends. It is filed as physicochemical. The method, then: The differential scanning calorimetry (DSC) studies were performed using a DSC 3 thermal analysis device (Mettler-Toledo GmbH, Greinfensee, Switzerland) calibrated upstream with high-purity zinc (99.99%, Tfus = 419.6 ± 0.7 °C, ΔfusH = 107.5 ± 3.2 J.g^−1), high-purity indium (99.99%, Tfus = 156.6 ± 0.3 °C, ΔfusH = 28.45 ± 0.60 J.g^−1) and controlled with both, and Milli-Q water (Merck Millipore, Burlington, MA, USA). Each sample was introduced in a 100 µL aluminum pan which was hermetically sealed afterwards. The conditions of the sample preparation, as well as the applied temperature program, were strictly identical to avoid any thermal history dependence of the samples. The cycle, performed twice on each sample, was freezing from ambient temperature to −80 °C at a rate of 5 °C/min, then holding for 3 min at −80 °C, then heating to 25 °C, at a rate of 5 °C/min under a 60 mL/min dry air flow. Travoprost, NaHA and PS80 were analyzed either alone or as binary drug:excipient blends at different weight ratios (1:3, 1:1 and 3:1, respectively). Measurements were performed on 3 independent samples (n = 3). Thermogram evaluation was performed using STARe version 16.30 (Mettler-Toledo GmbH, Greinfensee, Switzerland).
(In general: DSC measures the heat that a sample takes up or gives off during a temperature scan.)

Details of data set [2]: method as in doi:10.1002/etc.5620171002. The conditions noted are these: cited from earlier work.
Data set [3] can be described thus: Pyrene fluorescence spectroscopy (micelle formation, CMC determination). It counts as physicochemical. The conditions noted are these: pyrene 7.5 µM. As for the experimental part:
Pyrene is a lipophilic fluorescent probe often used to determine the critical micellar concentration (CMC) of surfactants. Indeed, it has the interesting feature of being sensitive to the polarity of its environment and partitioning into micelles leading to an hyperchromicity. First, 40 mg of pyrene were dissolved into 10 mL of ethanol, this solution was diluted in water to achieve a stock solution with a concentration of 7.5 µM. This stock solution was used as solvent to prepare PS80 and NaHA solutions of different concentrations in triplicate. Fluorescence measurements were performed using a Varian Cary Eclipse fluorescence spectrophotometer and processed with the Cary Eclipse software version 1.1.132 (Agilent Technologies, Santa Clara, CA, USA). The data were acquired using an excitation wavelength of 230 nm with a 20 nm slit and by recording an emission scan from 350 to 450 nm with a 2.5 nm slit. Peaks 1 and 3, used to determine the fluorescence ratio I1/I3, were at approximately 372 and 383 nm, respectively. PS80 CMC was determined using a sigmoidal non-linear variable slope regression performed using GraphPad Prism version 8.0.2 for windows (GraphPad Software, San Diego, CA, USA). CMC was considered as the abscissa of the point at which the top of the sigmoid and the tangent to the inflection point crossed.

Details of data set [4]: method as in doi:10.1007/s11743-000-0113-4. The conditions noted are these: surface tension measurement; cited from earlier work.
Details of data set [5]: method as in earlier work. The conditions noted are these: fluorescence-based method using pyrene-3-carboxaldehyde; cited from earlier work.
[6] abbreviates: Travoprost:Excipient mass ratio 1:0 (travoprost alone), n = 3.
Setting [7] is: Travoprost:Polysorbate 80 mass ratio 1:1.
Where [8] appears, read: Travoprost:Polysorbate 80 mass ratio 1:3.
Where [9] appears, read: Travoprost:Polysorbate 80 mass ratio 3:1.
Where [10] appears, read: Travoprost:Sodium Hyaluronate mass ratio 1:1.
The mark [11] stands for this setting: Travoprost:Sodium Hyaluronate mass ratio 1:3.
[12] abbreviates: Travoprost:Sodium Hyaluronate mass ratio 3:1.

Read-outs that look alike come from different tables or passages of the source.

Results on three molecules are retold here after paper PMC8877962, “New Preservative-Free Formulation for the Enhanced Ocular Bioavailability of Prostaglandin Analogues in Glaucoma” (Pharmaceutics, 2022).

Turning to `CC(C)OC(=O)CCC/C=C\C[C@@H]1[C@@H](/C=C/[C@@H](O)COc2cccc(C(F)(F)F)c2)[C@H](O)C[C@@H]1O` [Travoprost], the Tg in data set [1] (setting [6]) is −21.9 ± 0.6 °C; in data set [1] (Travoprost:Excipient mass ratio 1:0 (travoprost alone), n = 3, listed as travoprost) it was “around −22 °C”; in data set [1] (setting [7]), −54.4 ± 0.6 °C; in data set [1] (setting [8]), −58.8 ± 0.7 °C; in data set [1] (setting [9]) it was −44.2 ± 0.7 °C; in data set [1] (setting [10]) it was −21.4 ± 0.6 °C. The Tg in data set [1] (setting [11]) was −22.3 ± 0.7 °C; in data set [1] (setting [12]) it was −20.3 ± 0.6 °C. Besides, the “ΔCp normalized to travoprost content” value in data set [1] (setting [6]) is listed as −0.57 ± 0.05 J/g/K; in data set [1] (setting [7]), −2.04 ± 0.06 J/g/K; in data set [1] (setting [8]), −2.96 ± 0.07 J/g/K; in data set [1] (setting [9]), −1.32 ± 0.06 J/g/K; in data set [1] (setting [10]), −0.60 ± 0.05 J/g/K; in data set [1] (setting [11]) it was −0.55 ± 0.05 J/g/K. Also, the “ΔCp normalized to travoprost content” value in data set [1] (setting [12]) is −0.58 ± 0.06 J/g/K. Further, the “shift in the Tg” value in data set [1] (in presence of PS80, when increasing the excipient content) was −22 to −58 °C.
Regarding `c1cc2ccc3cccc4ccc(c1)c2c34` [pyrene, Pyrene], in data set [2], the log partition coefficient (LogP) is given as 6.0.
As for Polysorbate 80 [PS80], the “I1/I3 fluorescence ratio of pyrene with increasing excipient concentration” value in data set [3] is listed as “decrease”. Also, the CMC in data set [4] was 0.018 mM; in data set [5] it was 0.015 mM.

What is called LogP is the decadic logarithm of the partition coefficient of the neutral form, usually between octanol and water.
